Entries after “also recorded” stand apart in the source; their conditions may differ.
Assays:
[1] = system: AMPKα1α2+/+ control primary hepatocytes; assay: Lipogenesis assay ([14C]-acetate incorporation into fatty acids); type: cell-based, mouse
Protocol: (§1) Mouse hepatocytes were isolated by collagenase perfusion as previously described ([47]). Hepatocytes were seeded in medium Eagle-199 (MEM-199) (#41150, Thermo Fisher Scientific) containing penicillin G (100 U/ml), streptomycin (100 μg/ml), and 10% (v/v) fetal bovine serum (FBS). Hepatocytes were left for attachment (3 to 4 hours) and serum-starved overnight at 37°C with 5% CO2 in MEM-199 supplemented with penicillin G (100 U/ml), streptomycin (100 μg/ml), 10 nM insulin, and 100 nM dexamethasone. […] Cells were then harvested in 0.5 ml of phosphate-buffered saline (PBS), transferred into 1 ml of 40% KOH and 2 ml of methanol followed by 1-hour incubation at 80°C. Lipids were […] by acidifying the samples in 37% HCl and extracted with petroleum ether. Extracts were allowed to evaporate to dryness and then dissolved in Ultima Gold scintillation fluid for determination of [^14C]-acetate incorporation into lipids.

[2] = system: mouse primary hepatocytes; assay: Immunoblot of AMPK signaling in primary hepatocytes; type: cell-based
Protocol: as §1
Following compound treatment, the cells were washed with room temperature PBS and lysed on ice with the addition of lysis buffer [50 mM tris-HCl (pH 7.5), 150 mM NaCl, 1 mM EDTA, 1 mM EGTA, 0.27 M sucrose, 1% w/v Triton X-100, 20 mM glycerol-2 phosphate disodium, 50 mM NaF, and 5 mM Na4P2O7.10 H2O] containing proteases and phosphatase inhibitors [0.5 mM phenylmethylsulfonyl fluoride (PMSF), 1 mM benzamidine HCl, leupeptin (1 μg/ml), pepstatin A (1 μg/ml), 1 μM microcystin-LR, 1 mM Na3VO4, and 1 mM DTT]. Lysates were centrifuged at 10,000g, 4°C for 10 min, and protein concentration of the supernatant was determined with the Pierce Bradford Protein Assay Kit (Thermo Fisher Scientific, #23200) and read on the Hidex Plate Reader (software version 0.5.64.0). Samples were prepared in Laemmli sample buffer (tris 200 mM, 8% SDS, EDTA 2 mM, and 40% glycerol) supplemented with 10% DTT and boiled for 5 min at 100°C. Ten micrograms of protein per sample was run on a Criterion tris-glycine polyacrylamide gel (Bio-Rad, #5678095) and transferred to a nitrocellulose membrane. For cell signaling experiments in HEK293 cells, the samples were run on a Criterion TGX stain-free precast gel (Bio-Rad, catalog no. 5678085) with transfer to a polyvinylidene difluoride membrane performed in Bio-Rad Criterion blotter (#1704071) using tris-glycine transfer buffer (Bio-Rad, #1610734) following the manufacturer’s instructions. […]

[3] = in the presence of MK-8722 (10 μM)

Structure (SMILES)	rescue of MK-8722–mediated inhibition of lipogenesis ([1]; 2.5 and 5 μM, + MK-8722 (10 μM))	stimulation of lipogenesis ([1]; compound alone, 2.5 and 5 μM) [%]	concentration giving full inhibition of ACC1 phosphorylation [2, 3] [µM]	concentration giving full inhibition of Raptor phosphorylation [2, 3] [µM]	increased pThr172AMPK levels ([2]; with or without MK-8722 (10 μM))	effect on lipogenesis ([1]; 5 μM, vehicle- and MK-8722–treated conditions)	levels of pACC1, pRaptor, or pAMPK ([2]; 5 μM, with or without MK-8722)
CCc1ccccc1C(=O)Nc1n[nH]c2c(C)c(F)c(C3C(C#N)=C(C)N(C)C(C)=C3C#N)cc12 [BAY-3827, N-[5-(3,5-dicyano-1,2,6-trimethyl-4H-pyridin-4-yl)-6-fluoro-7-methyl-1H-indazol-3-yl]-2-ethylbenzamide]	dose-dependently rescued; also recorded: fully reversing	70 to 90	5	2.5	only significant under MK-8722–treated conditions at 5 μM	–	–
CC1=C(C#N)C(c2ccc3c(c2)c(NC(=O)c2ccccc2C)nn3C)C(C#N)=C(C)N1 [BAY-974, N-[5-(3,5-dicyano-2,6-dimethyl-1,4-dihydropyridin-4-yl)-1-methylindazol-3-yl]-2-methylbenzamide]	–	–	–	–	–	no effect	no effect

From paper PMC12372887, “Mechanism and cellular actions of the potent AMPK inhibitor BAY-3827” (Science Advances, 2025)
